From US6849409B2, “Cellular kinases involved in Cytomegalovirus infection and their inhibition” (Axxima Pharmaceuticals AG, priority 2000, dated 2005)

What was measured:
[1] = tested on: HCMV; assay: HCMV inhibition (virus replication assay, plaque assay, GFP infection assay or indirect immunofluorescence analysis); format: cell-based; details: Human betaherpesvirus 5, read-out: IC50 HCMV
Method: (§1) To perform initial tests for compounds that inhibit RICK activity in a cellular assay, RICK was transiently overexpressed in HEK-293 cells, immunoprecipitated and incubated with different concentrations of test compounds before in-vitro kinase assays were performed (Example 10). According to the method for identifying compounds useful for inhibiting the cellular kinase RICK and therefore useful for treating and/or preventing Cytomegalovirus infection and/or diseases associated with Cytomegalovirus infection, a test compound is contacted with the cellular kinase RICK according to the RICK assay protocol disclosed in example 10. The test compound dissolved in DMSO is added to the RICK assay solution at concentrations between 100 nM and 50 μM. Thereafter, radioactively labeled ATP is added and kinase activity of RICK is determined by detecting the autophosphorylation of RICK via radioactivity measurement. The five compounds listed in the following Table 1 were identified using said method. […] The IC50 values of HCMV inhibition were obtained by the use of at least one assay protocol selected from a) virus replication assay, b) plaque assay, c) GFP (Green Fluorescent Protein) infection assay, and d) indirect immunofluorescence analysis as disclosed in example 12. Thus, the five compounds A to E mentioned below and/or pharmaceutically acceptable salts thereof can be used as inhibitors of the cellular protein kinase RICK and as pharmaceutically active compounds for the treatment and/or prophylaxis of HCMV infection. Furthermore, these compounds are suitable for the manufacture of a pharmaceutical composition for prophylaxis and/or treatment of Cytomegalovirus infection and/or diseases associated therewith.
(§2) To perform initial tests for compounds that inhibit RIP activity in a cellular assay, RIP was transiently overexpressed in HEK-293 cells, immunoprecipitated and incubated with different concentrations of test compounds before in-vitro kinase assays were performed (Example 11). In order to identify compounds suitable for inhibiting the cellular kinase RIP and, thus, suitable for treating and/or preventing Cytomegalovirus infection and/or diseases associated with Cytomegalovirus infection the inventive method according to claim 1 was used. A test compound was contacted with the cellular kinase RIP according to the RIP assay protocoll disclosed in example 11. The test compound dissolved in DMSO is added to the RIP assay solution at concentrations between 100 nM and 50 μM. Radioactively labeled ATP was used as co-substrate of RIP and auto-phosphorylation was detected via measurement of incorporation of radioactivity into the RIP protein. Thereafter, phosphorylation rates with and without test compounds were compared. […] The IC50 values of HCMV inhibition were obtained by the use of at least one assay protocol selected from a) virus replication assay, b) plaque assay, c) GFP infection assay, and d) indirect immunofluorescence analysis as disclosed in example 12.
Primary human foreskin fibroblasts (HFF) were cultivated in MEM containing 5% (v/v) fetal calf serum. Infection analysis was restricted to cell passage numbers below twenty. Human cytomegalovirus strain AD169 (ATCC) was grown in HFF cells and quantitated for infectivity by the plaque reduction assay. Aliquots were stored at −80° C.
HFF cells were cultivated in 12-well plates to 90-100% confluency and used for infection with dilutions of virus-positive cell culture supernatants. Virus inoculation was performed for 90 min at 37° C. under occasional shaking before virus was removed and the cell layers were rinsed with PBS. Overlays of MEM 5% (v/v) fetal calf serum and 0.3% (w/v) agarose were added to each well and all samples were incubated at 37° C. in a 5% CO2 atmosphere for approximately 12 days. Finally, overlays were removed and the formation of foci was visualized by staining with 1% crystal violet in 20% ethanol for 1 min. […]

[2] = biological target: T1, RICK (Homo sapiens, UniProt O43353); assay: RICK-kinase assay (autophosphorylation of immunoprecipitated RICK-HA, radioactively labeled ATP); format: biochemical; details: in-vitro kinase assay, compound 100 nM to 50 μM, 30 min at 30° C.
T1 construct: made in house; host or cells: HEK 293 (transient transfection, pcDNA3), immunoprecipitated with anti-HA antibody
T1 sequence (O43353 whole entry): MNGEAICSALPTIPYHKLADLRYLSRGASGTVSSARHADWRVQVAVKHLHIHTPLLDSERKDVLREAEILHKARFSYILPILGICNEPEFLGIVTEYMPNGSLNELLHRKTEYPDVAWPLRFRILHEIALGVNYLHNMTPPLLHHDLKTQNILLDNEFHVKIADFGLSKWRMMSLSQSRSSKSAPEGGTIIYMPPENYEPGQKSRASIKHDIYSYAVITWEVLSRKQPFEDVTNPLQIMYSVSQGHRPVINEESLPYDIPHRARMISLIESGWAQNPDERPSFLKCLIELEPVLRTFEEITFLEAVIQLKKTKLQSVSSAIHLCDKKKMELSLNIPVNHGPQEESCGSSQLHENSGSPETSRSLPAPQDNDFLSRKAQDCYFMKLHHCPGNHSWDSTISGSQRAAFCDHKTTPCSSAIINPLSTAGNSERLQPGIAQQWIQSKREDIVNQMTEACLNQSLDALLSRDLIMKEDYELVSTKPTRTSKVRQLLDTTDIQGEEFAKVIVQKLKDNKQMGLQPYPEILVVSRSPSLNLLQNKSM
Method: as §1
To obtain active RICK kinase the human RICK-cDNA was fused with a DNA sequence coding for the HA-tag and cloned into the eucaryotic expression vector pcDNA3 (Invitrogene). This construct was transfected into human embryonic kidney cells (HEK 293) via the calcium-phosphate co-precipitation method. One day after transfection medium was replaced by fetal calf serurum-free medium and two days after transfection cells were washed with PBS and harvested and lysed in RIPA-buffer (150 mM NaCl, 1 mM EDTA, 1% Tritron X-100, 1% Na-desoxycholate, 0.1% SDS, 10 mM Tris-HCl pH 7.5). The RICK-HA fusion protein was immunoprecipitated from 250 μl cleared lysate (i.e. lysate of one well of a six-well plate) utilizing an anti-HA antibody from Roche Pharmaceuticals and Protein A sepharose. After addition of 500 μl of HNTG-buffer (50 mM HEPES pH 7.5, 150 mM NaCl, 1 mM EDTA, 10% glycerine, 0.1% Triton X-100) the sample was rotated for 3 hrs at 4° C. After washing the immunoprecipitate twice with 0.5 ml HNTG-buffer and twice with 0.5 ml assay-buffer (25 mM Tris-HCl pH 7.5, 3 mM MgCl2, 0.5 mM MnCl2, 0.5 mM DTT and 50 mM NaCl), the kinase reaction was performed directly on the beads in 40 μl assay buffer containing 2.5 μCi γ[^33P]-ATP and various concentrations (between 100 nM and 50 μM) of compounds of Table 1. After 30 min at 30° C., the reaction was stopped by addition of 40 μl 3×Laemmli-buffer (16% glycerol, 1.01M β-mercaptoethanol, 5% SDS, 200 mM Tris/HCl pH 6.8, 8% bromphenolblue). Phosphorylation products were analyzed by SDS-PAGE and auroradiography (x-ray film and phosphor imager).

[3] = biological target: T2, RIP (Homo sapiens, UniProt Q13546); assay: RIP-kinase assay (autophosphorylation of immunoprecipitated RIP-HA, radioactively labeled ATP); format: biochemical; details: in-vitro kinase assay, compound 100 nM to 50 μM, 30 min at 30° C.
T2 construct: made in house; host or cells: HEK 293 (transient transfection, pcDNA3), immunoprecipitated with anti-HA antibody
T2 sequence (Q13546 1-671 A438V): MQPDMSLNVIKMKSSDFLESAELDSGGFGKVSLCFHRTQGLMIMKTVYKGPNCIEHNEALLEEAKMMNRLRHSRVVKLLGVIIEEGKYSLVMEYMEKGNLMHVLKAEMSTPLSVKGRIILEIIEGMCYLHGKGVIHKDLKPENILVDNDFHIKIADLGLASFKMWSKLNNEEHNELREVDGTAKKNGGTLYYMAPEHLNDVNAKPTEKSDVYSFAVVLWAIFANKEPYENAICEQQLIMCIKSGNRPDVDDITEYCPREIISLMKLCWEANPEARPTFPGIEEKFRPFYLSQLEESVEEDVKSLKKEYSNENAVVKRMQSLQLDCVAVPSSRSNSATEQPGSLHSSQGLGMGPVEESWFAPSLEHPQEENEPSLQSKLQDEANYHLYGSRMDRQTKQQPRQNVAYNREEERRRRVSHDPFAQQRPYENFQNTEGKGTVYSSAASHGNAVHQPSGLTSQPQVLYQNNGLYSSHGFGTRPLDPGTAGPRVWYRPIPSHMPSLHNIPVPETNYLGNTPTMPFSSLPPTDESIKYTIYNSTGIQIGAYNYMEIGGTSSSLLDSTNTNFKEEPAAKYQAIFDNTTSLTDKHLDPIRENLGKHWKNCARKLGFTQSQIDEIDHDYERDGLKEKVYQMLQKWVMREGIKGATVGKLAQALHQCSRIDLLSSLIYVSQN
Method: as §2
To obtain active RIP kinase the human RIP-cDNA was fused with a DNA sequence coding for the HA-tag and cloned into the eucaryotic expression vector pcDNA3 (Invitrogene). This construct was transfected into human embryonic kidney cells (HEK 293) via the calcium-phosphate DNA co-precipitation method. Two days after transfection cells were washed with PBS and harvested and lysed in lysis-buffer (150 mM NaCl, 1 mM EDTA, 1% Tritron X-100, 20 mM Tris-HCl pH 7.5 and freshly added: 30 mM NaF, 10 μg/ml Aprotinine, 10 μg/ml Leupeptine, 2 mM Na-pyrophosphate). […] Phosphorylation products were analyzed by SDS-PAGE and autoradiography (x-ray film and phosphor imager).

Structure (SMILES) | IC50 [1] [µM] | IC50 [2] [nM] | IC50 [3] [µM]
CCOc1cc2ncnc(Nc3cccc(Br)c3)c2cc1OCC [Compound D, (3-Bromophenyl)-(6,7-diethoxyquinazolin-4-yl)-amine] | 7.6 | 500 | –
O=C1Nc2ccc(Cl)cc2/C1=C/c1ccc[nH]1 [Compound G, 5-Cloro-3-(1H-pyrrol-2-ylmethylene)-1,3-dihydroindol-2-one] | 15 | – | 10
CN1CCN(CCCNc2ncc3cc(-c4c(Cl)cccc4Cl)c(=O)n(C)c3n2)CC1 [Compound C, 6-(2,6-Dichlorophenyl)-8-methyl-2-[3-(4-methylpiperazin-1-yl)-propylamino]-8H-pyrido[2,3-d]pyrimidin-7-one] | 6.2 | 1000 | –
O=C1NC(=O)c2ccccc2/C1=C/c1ccnc2ccccc12 [Compound H, 4-Quinolin-4-ylmethylene-4H-isoquinoline-1,3-dione] | 12 | – | 5
Cn1c(=O)c(-c2c(Cl)cccc2Cl)cc2cnc(NCCCN3CCOCC3)nc21 [Compound A, 6-(2,6-Dichlorophenyl)-8-methyl-2-(3-morpholin-4-yl-propylamino)-8H-pyrido[2,3-d]pyrimidin-7-one] | 6.8 | 1000 | –
COc1cc2ncnc(Nc3cccc(Br)c3)c2cc1OC [Compound E, (3-Bromophenyl)-(6,7-dimethoxyquinazolin-4-yl)-amine] | 5.7 | 500 | –
Cn1c(=O)c(-c2ccccc2)cc2cnc(Nc3ccncc3)nc21 [Compound B, 8-methyl-6-phenyl-2-(pyridin-4-yl-amino)-8H-pyrido[2,3-d]pyrimidin-7-one] | 1.4 | 500 | –
O=c1c(O)c(-c2ccc(O)c(O)c2)oc2cc(O)cc(O)c12 [Compound F, 2-(3,4-Dihydroxyphenyl)-3,5,7-trihydroxychromen-4-one] | 15 | – | 5
